Measured values as given in patent US7829591B2, “Flavanone compound and uses thereof” (Pokka Corporation, priority 2003, dated 2010).

Assays:
Assay in all cases: Antimicrobial activity test with Compounds 1 to 4
Format in all cases: cell-based
Bacillus cereus (B. ce) = settings: for effect on growth and development of spore forming bacteria, B. ce (in words): 5-50 ppm
Experimental: (§1) That is, first of all, each of Compounds 1 to 4 was dissolved in 70% ethanol, and thereafter, standard agar media were prepared wherein the concentration of each of Compounds 1 to 4 was adjusted to be 0 ppm, 5 ppm, 10 ppm, 15 ppm, 20 ppm, or 50 ppm. Subsequently, these standard agar media were subjected to autoclave sterilization so as to prepare evaluation media, and each of the biological indicators was inoculated in each of these evaluation media. After the incubation of each of the bacteria, the number of the bacteria per a petri dish (CFU/petri dish) was determined.

[1] = system: Staphylococcus aureus (Sta.); settings: for effect on growth and development of Gram-positive bacteria, Sta. (in words): 5-50 ppm
Experimental: as §1

E. coli = settings: for effect on growth and development of E. coli (in words): 5-50 ppm
Experimental: as §1

[2] = system: Salmonella enteritidis (S. en; NBRC3313); settings: for effect on growth and development of S. en (in words): 5-50 ppm
Experimental: as §1

[3] = 5 ppm in standard agar medium, 0 ppm: 13 (Table 3), 183 (Table 4)
[4] = 5 ppm in standard agar medium, 0 ppm: 470 (Table 3), 202 (Table 4)
[5] = 5 ppm in standard agar medium, 0 ppm: >3000 (Table 3), 5 (Table 4)
[6] = 5 ppm in standard agar medium, 0 ppm: >3000 (Table 3), 221 (Table 4)

Row | SMILES | effect on growth and development of spore forming bacteria, B. ce (in words) (Bacillus cereus (B. ce)) | Number of Bacteria, B. ce (Bacillus cereus (B. ce); [3]) | Number of Bacteria, B. ce (Bacillus cereus (B. ce); 10 ppm in standard agar medium) | Number of Bacteria, B. ce (Bacillus cereus (B. ce); 15 ppm in standard agar medium) | Number of Bacteria, B. ce (Bacillus cereus (B. ce); 20 ppm in standard agar medium) | Number of Bacteria, B. ce (Bacillus cereus (B. ce); 50 ppm in standard agar medium) | effect on growth and development of Gram-positive bacteria, Sta. (in words) [1] | Number of Bacteria, Sta. [1, 4] | Number of Bacteria, Sta. ([1]; 10 ppm in standard agar medium) | Number of Bacteria, Sta. ([1]; 15 ppm in standard agar medium) | Number of Bacteria, Sta. ([1]; 20 ppm in standard agar medium) | Number of Bacteria, Sta. ([1]; 50 ppm in standard agar medium) | effect on growth and development of E. coli (in words) (E. coli) | Number of Bacteria, E. coli (E. coli; [5]) | Number of Bacteria, E. coli (E. coli; 10 ppm in standard agar medium) | Number of Bacteria, E. coli (E. coli; 15 ppm in standard agar medium) | Number of Bacteria, E. coli (E. coli; 20 ppm in standard agar medium) | Number of Bacteria, E. coli (E. coli; 50 ppm in standard agar medium) | effect on growth and development of S. en (in words) [2] | Number of Bacteria, S. en [2, 6] | further results
1 | CC(C)=CCC/C(C)=C/Cc1c([C@@H]2CC(=O)c3c(cc(O)c(CC=C(C)C)c3O)O2)ccc(O)c1O [Compound 4, 5,7,3′,4′-tetrahydroxy-6-(3′″,3′″-dimethylallyl)-2′-C-geranylflavanone] | high antimicrobial activity | 16 CFU/petri dish | 0 CFU/petri dish | 0 CFU/petri dish | 0 CFU/petri dish | 0 CFU/petri dish | high antimicrobial activity | 26 CFU/petri dish | 7 CFU/petri dish | 10 CFU/petri dish | 1 CFU/petri dish | 0 CFU/petri dish | high antimicrobial activity | 6 CFU/petri dish | 6 CFU/petri dish | 9 CFU/petri dish | 6 CFU/petri dish | 0 CFU/petri dish | antimicrobial activity | 249 CFU/petri dish | Number of Bacteria, S. en ([2]; 10 ppm in standard agar medium): 199 CFU/petri dish; Number of Bacteria, S. en ([2]; 15 ppm in standard agar medium): 225 CFU/petri dish; Number of Bacteria, S. en ([2]; 20 ppm in standard agar medium): 132 CFU/petri dish; Number of Bacteria, S. en ([2]; 50 ppm in standard agar medium): 65 CFU/petri dish
2 | CC(C)=CCC/C(C)=C/Cc1cc([C@@H]2CC(=O)c3c(O)cc(O)cc3O2)cc(O)c1O [Compound 2, 5,7,3′,4′-tetrahydroxy-5′-C-geranylflavanone] | more strongly the growth and development of each of Gram-5 positive bacteria and spore forming bacteria is inhibited | 17 CFU/petri dish | 0 CFU/petri dish | 0 CFU/petri dish | 0 CFU/petri dish | 0 CFU/petri dish | more strongly the growth and development of each of Gram-5 positive bacteria and spore forming bacteria is inhibited | 395 CFU/petri dish | 108 CFU/petri dish | 22 CFU/petri dish | 0 CFU/petri dish | 0 CFU/petri dish | little effect upon the growth and development | >3000 CFU/petri dish | >3000 CFU/petri dish | >3000 CFU/petri dish | >3000 CFU/petri dish | >3000 CFU/petri dish | little effect upon the growth and development | >3000 CFU/petri dish | Number of Bacteria, S. en ([2]; 10 ppm in standard agar medium): >3000 CFU/petri dish; Number of Bacteria, S. en ([2]; 15 ppm in standard agar medium): >3000 CFU/petri dish; Number of Bacteria, S. en ([2]; 20 ppm in standard agar medium): >3000 CFU/petri dish; Number of Bacteria, S. en ([2]; 50 ppm in standard agar medium): >3000 CFU/petri dish
3 | CC(C)=CCC/C(C)=C/Cc1c([C@@H]2CC(=O)c3c(O)cc(O)cc3O2)ccc(O)c1O [Compound 1, 5,7,3′,4′-tetrahydroxy-2′-C-geranylflavanone] | more strongly the growth and development of each of Gram-5 positive bacteria and spore forming bacteria is inhibited | 12 CFU/petri dish | 0 CFU/petri dish | 0 CFU/petri dish | 0 CFU/petri dish | 0 CFU/petri dish | more strongly the growth and development of each of Gram-5 positive bacteria and spore forming bacteria is inhibited | 344 CFU/petri dish | 36 CFU/petri dish | 0 CFU/petri dish | 0 CFU/petri dish | 0 CFU/petri dish | little effect upon the growth and development | >3000 CFU/petri dish | >3000 CFU/petri dish | >3000 CFU/petri dish | >3000 CFU/petri dish | >3000 CFU/petri dish | little effect upon the growth and development | >3000 CFU/petri dish | Number of Bacteria, S. en ([2]; 10 ppm in standard agar medium): >3000 CFU/petri dish; Number of Bacteria, S. en ([2]; 15 ppm in standard agar medium): >3000 CFU/petri dish; Number of Bacteria, S. en ([2]; 20 ppm in standard agar medium): >3000 CFU/petri dish; Number of Bacteria, S. en ([2]; 50 ppm in standard agar medium): >3000 CFU/petri dish
4 | CC(C)=CCC/C(C)=C/Cc1c(O)cc2c(c1O)C(=O)C[C@@H](c1ccc(O)c(O)c1)O2 [Compound 3, 5,7,3′,4′-tetrahydroxy-6-C-geranylflavanone] | high antimicrobial activity | 4 CFU/petri dish | 0 CFU/petri dish | 0 CFU/petri dish | 0 CFU/petri dish | 0 CFU/petri dish | high antimicrobial activity | 22 CFU/petri dish | 0 CFU/petri dish | 0 CFU/petri dish | 0 CFU/petri dish | 0 CFU/petri dish | high antimicrobial activity | 3 CFU/petri dish | 1 CFU/petri dish | 0 CFU/petri dish | 0 CFU/petri dish | 0 CFU/petri dish | antimicrobial activity | 296 CFU/petri dish | Number of Bacteria, S. en ([2]; 10 ppm in standard agar medium): 207 CFU/petri dish; Number of Bacteria, S. en ([2]; 15 ppm in standard agar medium): 116 CFU/petri dish; Number of Bacteria, S. en ([2]; 20 ppm in standard agar medium): 143 CFU/petri dish; Number of Bacteria, S. en ([2]; 50 ppm in standard agar medium): 43 CFU/petri dish
